For the first assay, the target named is Nav 1.7 (Homo sapiens (Human), UniProt Q15858). Description: in-vitro Nav 1.7 PX (IC50). The class given is cell-based.
Nav 1.7, sequence (Q15858 whole entry): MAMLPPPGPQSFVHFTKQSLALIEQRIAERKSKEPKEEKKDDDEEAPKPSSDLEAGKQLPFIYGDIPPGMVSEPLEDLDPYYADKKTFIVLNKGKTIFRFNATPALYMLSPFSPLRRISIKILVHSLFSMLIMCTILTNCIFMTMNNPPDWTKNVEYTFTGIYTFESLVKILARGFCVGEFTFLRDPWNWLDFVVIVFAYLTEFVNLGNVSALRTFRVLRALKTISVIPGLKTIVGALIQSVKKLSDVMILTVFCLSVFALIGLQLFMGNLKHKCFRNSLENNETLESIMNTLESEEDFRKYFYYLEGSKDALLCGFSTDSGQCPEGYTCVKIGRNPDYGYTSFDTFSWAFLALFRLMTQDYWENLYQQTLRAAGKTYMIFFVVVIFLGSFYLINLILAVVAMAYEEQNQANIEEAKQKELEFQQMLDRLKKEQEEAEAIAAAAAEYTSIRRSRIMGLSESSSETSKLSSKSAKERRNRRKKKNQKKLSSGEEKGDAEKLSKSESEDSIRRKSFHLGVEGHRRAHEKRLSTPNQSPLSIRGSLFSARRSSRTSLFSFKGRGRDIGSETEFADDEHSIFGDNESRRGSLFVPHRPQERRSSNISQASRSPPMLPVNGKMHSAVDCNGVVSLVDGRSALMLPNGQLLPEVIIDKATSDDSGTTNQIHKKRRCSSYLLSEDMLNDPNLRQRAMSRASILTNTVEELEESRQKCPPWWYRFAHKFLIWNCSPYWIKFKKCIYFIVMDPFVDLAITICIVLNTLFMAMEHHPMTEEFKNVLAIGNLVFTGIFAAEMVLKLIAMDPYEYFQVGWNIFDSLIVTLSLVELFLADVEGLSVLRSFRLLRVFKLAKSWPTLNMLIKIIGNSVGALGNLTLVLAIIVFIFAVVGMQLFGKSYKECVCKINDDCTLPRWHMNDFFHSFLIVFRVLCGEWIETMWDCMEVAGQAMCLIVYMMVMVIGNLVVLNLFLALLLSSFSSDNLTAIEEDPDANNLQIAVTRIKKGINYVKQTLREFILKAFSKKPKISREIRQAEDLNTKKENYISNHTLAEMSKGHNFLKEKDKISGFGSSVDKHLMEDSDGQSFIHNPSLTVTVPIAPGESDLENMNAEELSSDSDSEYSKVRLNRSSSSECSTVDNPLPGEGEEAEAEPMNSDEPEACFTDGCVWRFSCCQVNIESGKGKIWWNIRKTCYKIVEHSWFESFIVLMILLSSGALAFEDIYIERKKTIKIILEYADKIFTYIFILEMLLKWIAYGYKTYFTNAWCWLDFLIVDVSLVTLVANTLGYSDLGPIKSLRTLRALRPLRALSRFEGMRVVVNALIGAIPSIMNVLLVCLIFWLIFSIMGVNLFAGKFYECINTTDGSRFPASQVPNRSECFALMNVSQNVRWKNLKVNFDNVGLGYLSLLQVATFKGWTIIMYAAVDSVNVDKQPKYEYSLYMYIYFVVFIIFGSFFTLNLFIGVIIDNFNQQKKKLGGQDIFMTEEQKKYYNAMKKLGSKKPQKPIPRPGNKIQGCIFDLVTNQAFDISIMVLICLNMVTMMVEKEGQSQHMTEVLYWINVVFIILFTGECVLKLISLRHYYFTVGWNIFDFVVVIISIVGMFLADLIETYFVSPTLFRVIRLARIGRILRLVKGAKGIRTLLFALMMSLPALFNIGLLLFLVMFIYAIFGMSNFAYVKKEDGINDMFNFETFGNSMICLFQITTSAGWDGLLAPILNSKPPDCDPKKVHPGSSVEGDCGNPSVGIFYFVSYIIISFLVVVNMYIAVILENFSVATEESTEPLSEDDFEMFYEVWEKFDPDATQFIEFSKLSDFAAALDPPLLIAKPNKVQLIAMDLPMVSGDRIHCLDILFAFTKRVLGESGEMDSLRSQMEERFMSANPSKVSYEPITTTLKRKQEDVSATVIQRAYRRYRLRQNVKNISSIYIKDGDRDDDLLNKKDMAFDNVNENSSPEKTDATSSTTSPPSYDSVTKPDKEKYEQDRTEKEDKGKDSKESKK
Settings: not given
In general, IC50 refers to the concentration that inhibits the measured activity by half. A higher IC50 goes with weaker potency. The compound “1-(2′-chloro-5-methoxy-2,3′-dimethyl-4-biphenylyl)-2-oxo-N-2-pyrimidinyl-1,2-dihydro-6-quinolinesulfonamide [Example 961]” returned an IC50 of 56 nM.
On to `COc1cc(-c2cccc(Cl)c2)c(C)cc1-n1c(=O)ccc2cc(S(=O)(=O)Nc3ccon3)ccc21` (atropisomer, axis not shown; (M)) [Example 313, (M)-1-(3′-chloro-5-methoxy-2-methyl-4-biphenylyl)-N-3-isoxazolyl-2-oxo-1,2-dihydro-6-quinolinesulfonamide], for which the IC50 came out at 799 nM.
On to `COc1cc(-c2cccc(Cl)c2)cc(F)c1-n1c(=O)ccc2cc(S(=O)(=O)Nc3ccon3)ccc21` (atropisomer, axis not shown; (M)) [Example 319, (M)-1-(3′-chloro-3-fluoro-5-methoxy-4-biphenylyl)-N-3-isoxazolyl-2-oxo-1,2-dihydro-6-quinolinesulfonamide], for which the IC50 came out at 207 nM.
Take `COc1cc(-c2cccc(Cl)c2)c(C)cc1-n1c(=O)ccc2cc(S(=O)(=O)Nc3ncccn3)ccc21` (atropisomer, axis not shown; (M)) [Example 322, (M)-1-(3′-chloro-5-methoxy-2-methyl-4-biphenylyl)-2-oxo-N-2-pyrimidinyl-1,2-dihydro-6-quinolinesulfonamide]: the IC50 was 3890 nM.
The same measure, in the same setting: the result for `COc1cc(-c2cccc(F)c2)c(Cl)cc1-n1c(=O)ccc2cc(S(=O)(=O)Nc3nncs3)ccc21` (atropisomer, axis not shown; (M)) [Example 354, (M)-1-(2-chloro-3′-fluoro-5-methoxy-[1,1′-biphenyl]-4-yl)-2-oxo-N-(1,3,4-THIADIAZOL-2-yl)-1,2-dihydroquinoline-6-sulfonamide] reads 5860 nM.
`COc1cc(-c2cccc(F)c2)c(Cl)cc1-n1c(=O)ccc2cc(S(=O)(=O)Nc3ccon3)c(F)cc21` (atropisomer, axis not shown; (M)) [Example 357, (M)-1-(2-chloro-3′-fluoro-5-methoxy-[1,1′-biphenyl]-4-yl)-7-fluoro-N-(isoxazol-3-yl)-2-oxo-1,2-dihydroquinoline-6-sulfonamide] gave an IC50 of 40 nM.
`COc1ccc(-c2cccc(C(F)(F)F)c2)cc1-n1c(=O)ccc2cc(S(=O)(=O)Nc3ccon3)ccc21` (atropisomer, axis not shown; (M)) [Example 382, (M)-N-3-isoxazolyl-1-(4-methoxy-3′-(trifluoromethyl)-3-biphenylyl)-2-oxo-1,2-dihydro-6-quinolinesulfonamide]: the IC50 was found to be 3080 nM.
Same read-out and setting: with `CCOc1cc(-c2cccc(F)c2)c(F)cc1-n1c(=O)ccc2cc(S(=O)(=O)Nc3ccon3)ccc21` (atropisomer, axis not shown; (M)) [Example 389, (M)-1-(5-ethoxy-2,3′-difluoro-[1,1′-biphenyl]-4-yl)-N-(isoxazol-3-yl)-2-oxo-1,2-dihydroquinoline-6-sulfonamide] the figure was 239 nM; with `COc1cc(-c2ccc(Cl)c(C)c2)c(F)cc1-n1c(=O)c(OC)cc2cc(S(=O)(=O)Nc3ccon3)ccc21` (atropisomer, axis not shown; (M)) [Example 413, (M)-1-(4′-chloro-2-fluoro-5-methoxy-3′-methyl-[1,1′-biphenyl]-4-yl)-N-(isoxazol-3-yl)-3-methoxy-2-oxo-1,2-dihydroquinoline-6-sulfonamide], 5890 nM.
Same read-out and setting: the result for `COc1cc(-c2cc(F)cc(Cl)c2)c(C)cc1-n1c(=O)ccc2cc(S(=O)(=O)Nc3ccon3)ccc21` (atropisomer, axis not shown; (M)) [Example 418, (M)-1-(3′-chloro-5′-fluoro-5-methoxy-2-methyl-4-biphenylyl)-N-3-isoxazolyl-2-oxo-1,2-dihydro-6-quinolinesulfonamide] reads 309 nM; that for `COc1cc(-c2ccc(Cl)c(C)c2)c(C)cc1-n1c(=O)ccc2cc(S(=O)(=O)Nc3ccon3)ccc21` (atropisomer, axis not shown; (M)) [Example 422, (M)-1-(4′-chloro-5-methoxy-2,3′-dimethyl-4-biphenylyl)-N-3-isoxazolyl-2-oxo-1,2-dihydro-6-quinolinesulfonamide], 6090 nM; that for `COc1cc(-c2cc(F)cnc2OC)c(C)cc1-n1c(=O)ccc2cc(S(=O)(=O)Nc3ccon3)ccc21` (atropisomer, axis not shown; (M)) [Example 425, (M)-1-(4-(5-fluoro-2-methoxy-3-pyridinyl)-2-methoxy-5-methylphenyl)-N-3-isoxazolyl-2-oxo-1,2-dihydro-6-quinolinesulfonamide], 20100 nM.
Compound `COc1cc(-c2cccc(F)c2)c(C)cc1-n1c(=O)ccc2cc(S(=O)(=O)Nc3ccon3)ccc21` (atropisomer, axis not shown; (M)) [Example 428, (M)-1-(3′-fluoro-5-methoxy-2-methyl-4-biphenylyl)-N-3-isoxazolyl-2-oxo-1,2-dihydro-6-quinolinesulfonamide] displayed an IC50 of 7590 nM.
The compound `COc1cc(-c2cc(F)cc(Cl)c2)ccc1-n1c(=O)ccc2cc(S(=O)(=O)Nc3ccon3)ccc21` (atropisomer, axis not shown; (M)) [Example 429, (M)-1-(3′-chloro-5′-fluoro-3-methoxy-4-biphenylyl)-N-3-isoxazolyl-2-oxo-1,2-dihydro-6-quinolinesulfonamide] showed a half-inhibitory concentration (IC50) of 1590 nM.
For the compound `COc1cc(-c2ccc(Cl)c(C)c2)ccc1-n1c(=O)ccc2cc(S(=O)(=O)Nc3ccon3)ccc21` (atropisomer, axis not shown; (M)) [Example 431, (M)-1-(4′-chloro-3-methoxy-3′-methyl-4-biphenylyl)-N-3-isoxazolyl-2-oxo-1,2-dihydro-6-quinolinesulfonamide], it took 5050 nM to reach half-maximal inhibition (IC50).
`COc1cc(-c2cc(F)cc(Cl)c2)c(C#N)cc1-n1c(=O)ccc2cc(S(=O)(=O)Nc3ccon3)ccc21` (atropisomer, axis not shown; (M)) [Example 434, (M)-1-(3′-chloro-2-cyano-5′-fluoro-5-methoxy-4-biphenylyl)-N-3-isoxazolyl-2-oxo-1,2-dihydro-6-quinolinesulfonamide] showed an IC50 of 1840 nM.
On the same count and under the same terms, the result for `COc1cc(-c2cccc(Cl)c2)c(Cl)cc1-n1c(=O)ccc2cc(S(=O)(=O)Nc3ccon3)ccc21` (atropisomer, axis not shown; (M)) [Example 460, (M)-1-(2,3′-dichloro-5-methoxy-[1,1′-biphenyl]-4-yl)-N-(isoxazol-3-yl)-2-oxo-1,2-dihydroquinoline-6-sulfonamide] reads 1760 nM; that for `COc1cc(-c2cc(F)cc(Cl)c2)c(Cl)cc1-n1c(=O)ccc2cc(S(=O)(=O)Nc3ccon3)ccc21` (atropisomer, axis not shown; (M)) [Example 462, (M)-1-(2,3′-dichloro-5′-fluoro-5-methoxy-[1,1′-biphenyl]-4-yl)-N-(isoxazol-3-yl)-2-oxo-1,2-dihydroquinoline-6-sulfonamide], 193 nM.
The compound `COc1cc(-c2cccc(F)c2)c(Cl)cc1-n1c(=O)ccc2cc(S(=O)(=O)Nc3ccncn3)ccc21` (atropisomer, axis not shown; (M)) [Example 466, (M)-1-(2-chloro-3′-fluoro-5-methoxy-[1,1′-biphenyl]-4-yl)-2-oxo-N-(pyrimidin-4-yl)-1,2-dihydroquinoline-6-sulfonamide] returned an IC50 of 4320 nM.

The assay is the same for the next values; noted with them: in-vitro Nav 1.7 PX data.
In turn, “1-(3′-(difluoromethoxy)-2-fluoro-5-methoxy-4-biphenylyl)-N-(5-fluoro-2-pyrimidinyl)-2-oxo-1,2-dihydro-6-quinolinesulfonamide [Example 907]” registered an IC50 of 191 nM.
On the same count and under the same terms, the result for “1-(4′-chloro-2-fluoro-3′,5-dimethyl-4-biphenylyl)-2-oxo-N-3-pyridazinyl-1,2-dihydro-6-quinolinesulfonamide [Example 973]” reads 90 nM.
In turn, `COc1cc(-c2ccc(Cl)cc2)c(F)cc1-n1c(=O)ccc2cc(S(=O)(=O)Nc3ncccn3)ccc21` (atropisomer, axis not shown) [Example 598, 1-(4′-chloro-2-fluoro-5-methoxy-4-biphenylyl)-2-oxo-N-2-pyrimidinyl-1,2-dihydro-6-quinolinesulfonamide] returned an IC50 of 28 nM.

The same assay, now with this note: in-vitro PatchXpress (PX).
`COc1cc(-c2ccc(F)c(Cl)c2)c(F)cc1-n1c(=O)ccc2cc(S(=O)(=O)Nc3ccon3)ccc21` (atropisomer, axis not shown; (M)) [Example 366, (M)-1-(3′-chloro-2,4′-difluoro-5-methoxy-4-biphenylyl)-N-3-isoxazolyl-2-oxo-1,2-dihydro-6-quinolinesulfonamide]: it took 1260 nM to reach half-maximal inhibition (IC50).
Compound `COc1cc(-c2ccc(Cl)c(C)c2)c(Cl)cc1-n1c(=O)ccc2cc(S(=O)(=O)Nc3ccncn3)ccc21` (atropisomer, axis not shown; (M)) [Example 368, (M)-1-(2,4′-dichloro-5-methoxy-3′-methyl-4-biphenylyl)-2-oxo-N-4-pyrimidinyl-1,2-dihydro-6-quinolinesulfonamide] came in with an IC50 of 677 nM.
Still for that read-out and setting: with `COc1cc(-c2cccc(C(F)(F)F)c2)ccc1-n1c(=O)ccc2cc(S(=O)(=O)Nc3cccnn3)ccc21` (atropisomer, axis not shown; (M)) [Example 370, (M)-1-(3-methoxy-3′-(trifluoromethyl)-4-biphenylyl)-2-oxo-N-3-pyridazinyl-1,2-dihydro-6-quinolinesulfonamide] the figure was 2430 nM; with `COc1cc(-c2ccc(Cl)c(C)c2)ccc1-n1c(=O)ccc2cc(S(=O)(=O)Nc3cccnn3)ccc21` (atropisomer, axis not shown; (M)) [Example 372, (M)-1-(4′-chloro-3-methoxy-3′-methyl-4-biphenylyl)-2-oxo-N-3-pyridazinyl-1,2-dihydro-6-quinolinesulfonamide], 29 nM.
In the case of `COc1cc(-c2cncc(Cl)c2)c(F)cc1-n1c(=O)ccc2cc(S(=O)(=O)Nc3ccon3)ccc21` (atropisomer, axis not shown; (M)) [Example 409, (M)-1-(4-(5-chloro-3-pyridinyl)-5-fluoro-2-methoxyphenyl)-N-3-isoxazolyl-2-oxo-1,2-dihydro-6-quinolinesulfonamide], it took 60 nM to reach half-maximal inhibition (IC50).

For the origin of these results see US9212182B2, “Bicyclic sulfonamide compounds as sodium channel inhibitors” (AMGEN INC., priority 2013, dated 2015).
